The supplement of paper PMC10307832

What was measured:
Assay in all cases: relative viability (nuclei count vs DMSO), 5 days (fraction); higher = more cells survive
GW-2580 + Vorinostat = compound: COC1=CC=C(C=C1)COC2=C(C=C(C=C2)CC3=CN=C(N=C3N)N)OC [GW-2580] + O=C(CCCCCCC(=O)Nc1ccccc1)NO [Vorinostat] (partner 1 µM)
In short: (§1)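 Lung cancer cell lines in 1536-well plates got either a single drug or a fixed anchor-drug dose together with five library-drug doses (not always all listed) in √10 steps, by pin tool, on the day after seeding. Nuclei were counted after 5 days, and relative viability is the treated-to-vehicle ratio of nuclei counts. Values are medians of duplicate plates.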

Fedratinib + AZD7762 = compound: Cc1cnc(Nc2ccc(OCCN3CCCC3)cc2)nc1Nc1cccc(S(=O)(=O)NC(C)(C)C)c1 [Fedratinib] + NC(=O)Nc1cc(-c2cccc(F)c2)sc1C(=O)N[C@H]1CCCNC1 [AZD7762] (partner 0.2 µM)
In short: as §1

GW-2580 + Bortezomib = compound: COC1=CC=C(C=C1)COC2=C(C=C(C=C2)CC3=CN=C(N=C3N)N)OC [GW-2580] + CC(C)C[C@H](NC(=O)[C@H](Cc1ccccc1)NC(=O)c1cnccn1)B(O)O [Bortezomib] (partner 0.002 µM)
In short: as §1

GW-2580 + Luminespib = compound: COC1=CC=C(C=C1)COC2=C(C=C(C=C2)CC3=CN=C(N=C3N)N)OC [GW-2580] + CCNC(=O)c1noc(-c2cc(C(C)C)c(O)cc2O)c1-c1ccc(CN2CCOCC2)cc1 [Luminespib] (partner 0.01 µM)
In short: as §1

GW-2580 + AZD7762 = compound: COC1=CC=C(C=C1)COC2=C(C=C(C=C2)CC3=CN=C(N=C3N)N)OC [GW-2580] + NC(=O)Nc1cc(-c2cccc(F)c2)sc1C(=O)N[C@H]1CCCNC1 [AZD7762] (partner 0.2 µM)
In short: as §1

Cell Line | relative viability (GW-2580 + Vorinostat; first compound 0.08 µM) | relative viability (GW-2580 + Vorinostat; first compound 0.8 µM) | relative viability (GW-2580 + Vorinostat; first compound 2.53 µM) | relative viability (GW-2580 + Vorinostat; first compound 8 µM) | relative viability (Fedratinib + AZD7762; first compound 0.1 µM) | relative viability (Fedratinib + AZD7762; first compound 0.3162 µM) | relative viability (Fedratinib + AZD7762; first compound 1 µM) | relative viability (GW-2580 + Bortezomib; first compound 0.08 µM) | relative viability (GW-2580 + Bortezomib; first compound 0.8 µM) | relative viability (GW-2580 + Bortezomib; first compound 2.53 µM) | relative viability (GW-2580 + Bortezomib; first compound 8 µM) | relative viability (GW-2580 + Luminespib; first compound 0.08 µM) | relative viability (GW-2580 + Luminespib; first compound 0.8 µM) | relative viability (GW-2580 + Luminespib; first compound 8 µM) | relative viability (GW-2580 + AZD7762; first compound 0.08 µM) | relative viability (GW-2580 + AZD7762; first compound 0.8 µM) | relative viability (GW-2580 + AZD7762; first compound 8 µM) | relative viability (GW-2580 + Luminespib; first compound 2.53 µM) | relative viability (GW-2580 + AZD7762; first compound 2.53 µM)
EPLC-272H | 0.381 | 0.409 | 0.301 | 0.334 | 0.222 | 0.24 | 0.168 | 1.33 | 1.07 | 0.963 | 1.01 | 0.274 | 0.204 | 0.243 | 0.221 | 0.315 | 0.297 | – | –
NCI-H1915 | 0.559 | 0.583 | 0.442 | 0.508 | 0.754 | 0.66 | 0.67 | 1 | 1.11 | 0.959 | 1.05 | 0.852 | 1.12 | 0.917 | 0.772 | 0.708 | 0.743 | 0.429 | 0.692
NCI-H596 | 0.591 | 0.595 | 0.495 | 0.564 | 0.965 | 1.04 | 1.13 | 0.938 | 1.06 | 1.23 | 1.01 | 0.987 | 1.03 | 0.913 | 1.1 | 1.18 | 1.14 | 0.998 | 1.19
NCI-H322M | 0.843 | 0.996 | 0.893 | 0.903 | 0.596 | 0.591 | 0.414 | 1.29 | 1.4 | 1.31 | 1.43 | 0.868 | 0.887 | 0.903 | 0.508 | 0.706 | 0.531 | 0.805 | 0.598
NCI-H647 | 0.726 | 0.511 | 0.59 | 0.447 | 0.424 | 0.444 | 0.249 | 1.1 | 0.994 | 0.756 | 1.09 | 0.128 | 0.323 | 0.205 | 0.567 | 0.621 | 0.405 | 0.136 | 0.326
NCI-H2085 | 0.786 | 0.856 | 0.735 | 0.821 | 0.952 | 0.925 | 0.928 | 1.11 | 1.12 | 1.19 | 1.03 | 0.529 | 0.364 | 0.411 | 1.14 | 1.14 | 0.919 | 0.436 | 0.989
NCI-H727 | 1.09 | 1.26 | 1.25 | 1.26 | 0.639 | 0.465 | 0.576 | 1.01 | 1.18 | 1.35 | 0.835 | – | 0.539 | 0.382 | 0.461 | 0.732 | 0.432 | 0.344 | 0.576
NCI-H441 | 0.913 | 0.951 | 0.68 | 0.783 | 1.34 | 1.09 | 1.05 | 0.608 | 0.254 | 0.288 | 1.13 | 0.307 | 0.621 | 0.293 | 1.13 | 1.26 | 1.08 | 0.493 | 1.06
LOU-NH91 | 0.925 | 1.03 | 0.801 | 0.943 | 0.594 | 0.857 | 0.658 | 0.522 | 0.534 | 0.468 | 0.46 | 0.413 | 0.34 | 0.356 | 0.862 | 0.677 | 0.794 | 0.319 | 0.743
NCI-H3122 | 1.08 | 1.06 | 1.06 | 1.13 | 1.07 | 1.02 | 0.912 | 1.04 | 0.939 | 1.1 | 1.11 | 0.0808 | 0.0609 | 0.0798 | 1.01 | 1.02 | 1 | 0.0868 | 1.06
NCI-H460 | 0.85 | 1.11 | 0.721 | 0.631 | 0.738 | 0.563 | 0.544 | 1.29 | 1.27 | 1.03 | 1.19 | 0.0341 | 0.0427 | 0.0322 | 0.595 | 0.714 | 0.492 | 0.0355 | 0.383
NCI-H650 | 0.512 | 0.502 | 0.349 | 0.416 | 1.17 | 0.933 | 0.755 | 0.807 | 1.06 | 0.658 | 0.845 | 0.872 | 0.857 | 0.618 | 0.884 | 1.28 | 0.982 | 0.676 | 0.869
NCI-H1734 | 0.871 | 0.802 | 0.725 | 0.775 | 0.709 | 0.512 | 0.515 | 0.976 | 0.995 | 0.775 | 0.967 | 0.169 | 0.171 | 0.19 | 0.543 | 0.558 | 0.568 | 0.193 | 0.481
LXF-289 | 0.843 | 0.806 | 0.776 | 0.72 | 1.08 | 1.07 | 0.966 | 1 | 1.06 | 0.93 | 0.916 | 0.719 | 0.732 | 0.616 | 1.17 | 1.2 | 1.06 | 0.684 | 1.07
H3255 | 0.802 | 0.875 | 0.75 | 0.771 | 0.809 | 0.858 | 0.794 | 0.542 | 0.998 | 0.579 | 0.749 | 0.825 | 1.1 | 0.67 | 0.876 | 1.22 | 0.758 | 0.84 | 0.817
201T | 1.01 | 0.949 | 0.992 | 0.883 | 0.753 | 0.531 | 0.593 | 1.15 | 1.12 | 1.11 | 1.14 | 1.04 | 1.04 | 0.988 | 0.575 | 0.579 | 0.627 | 1.08 | 0.583
NCI-H2126 | 0.817 | 0.794 | 0.749 | 0.814 | 1.06 | 1.01 | 1.01 | 1.14 | 1.24 | 1.03 | 1.14 | 0.96 | 1 | 0.825 | 1.06 | 1.02 | 1.03 | 0.907 | 0.942
HOP-62 | 0.736 | 0.73 | 0.539 | 0.731 | 0.734 | 0.566 | 0.555 | 1.13 | 0.861 | 0.406 | 0.727 | 1.02 | 1.04 | 0.917 | 0.664 | 0.74 | 0.424 | 0.91 | 0.571
CAL-12T | 0.777 | 0.697 | 0.978 | 0.859 | 0.594 | 0.618 | 0.666 | 0.901 | 1.28 | 0.884 | 1.16 | 0.335 | 0.439 | 0.575 | 0.639 | 0.737 | 0.594 | 0.347 | 0.602
NCI-H1755 | 1.03 | 0.77 | 0.7 | 0.748 | 0.422 | 0.47 | 0.43 | 1.03 | 1.1 | 0.883 | 0.852 | 0.697 | 0.401 | 0.45 | 0.483 | 0.486 | 0.405 | 0.332 | 0.448
